# Publication PMC12300041, “Tricyclic Isatin Derivatives as Anti-Inflammatory Compounds with High Kinase Binding Affinity” (Molecules, 2025)
# What was measured:
# Assay in all cases: KINOMEscan
# Type in all cases: binding
# TRKC = target: T1, TRKC (Homo sapiens, UniProt Q16288)
# T1 construct: purchased Eurofins DiscoverX KINOMEscan
# Summary of the method: (§1)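 Dissociation constants derive from a 12-point, half-log compound titration (highest 33 μM). Each binding reaction ran 1 h at room temperature before qPCR quantification of kinase captured on an immobilized affinity ligand.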
# ERN1 = target: T2, ERN1 (Homo sapiens, UniProt O75460)
# T2 construct: purchased Eurofins DiscoverX KINOMEscan
# Summary of the method: (§2)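 Kd determination: 12-pt half-log series, top 33 μM; 1 h binding, RT; unbound kinase pulled down on immobilized ligand, measured by qPCR.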
# BLK = target: T3, BLK (Homo sapiens, UniProt P51451)
# T3 construct: purchased Eurofins DiscoverX KINOMEscan
# Summary of the method: as §2
# PKN2 = target: T4, PKN2 (Homo sapiens, UniProt Q16513)
# T4 construct: purchased Eurofins DiscoverX KINOMEscan
# Summary of the method: as §2
# MARK1 = target: T5, MARK1 (Homo sapiens, UniProt Q9P0L2)
# T5 construct: purchased Eurofins DiscoverX KINOMEscan
# Summary of the method: as §2
# FGFR2 = target: T6, FGFR2 (Homo sapiens, UniProt P21802)
# T6 construct: purchased Eurofins DiscoverX KINOMEscan
# Summary of the method: as §2
# MKK7 = target: T7, MKK7 (Homo sapiens, UniProt O14733)
# T7 construct: purchased Eurofins DiscoverX KINOMEscan
# Summary of the method: as §2
# DMPK = target: T8, DMPK (Homo sapiens, UniProt Q09013)
# T8 construct: purchased Eurofins DiscoverX KINOMEscan
# Summary of the method: as §1
# TAOK2 = target: T9, TAOK2 (Homo sapiens, UniProt Q9UL54)
# T9 construct: purchased Eurofins DiscoverX KINOMEscan
# Summary of the method: as §2
# MELK = target: T10, MELK (Homo sapiens, UniProt Q14680)
# T10 construct: purchased Eurofins DiscoverX KINOMEscan
# Summary of the method: as §2
# PCTK1 = target: T11, PCTK1 (Homo sapiens, UniProt Q00536)
# T11 construct: purchased Eurofins DiscoverX KINOMEscan
# Summary of the method: as §2
# ERK5 = target: T12, ERK5 (Homo sapiens, UniProt Q13164)
# T12 construct: purchased Eurofins DiscoverX KINOMEscan
# Summary of the method: as §2
# [1] = target: T13, RPS6KA4 (Kin. Dom.2-C-term.) (Homo sapiens, UniProt O75676)
# T13 construct: RPS6KA4 (Kin. Dom.2-C-term.); purchased Eurofins DiscoverX KINOMEscan
# Summary of the method: as §2
# p38-σ = target: T14, p38-σ (Homo sapiens, UniProt O15264)
# T14 construct: purchased Eurofins DiscoverX KINOMEscan
# Summary of the method: as §2
# PCTK3 = target: T15, PCTK3 (Homo sapiens, UniProt Q07002)
# T15 construct: purchased Eurofins DiscoverX KINOMEscan
# Summary of the method: as §2
# EPHB4 = target: T16, EPHB4 (Homo sapiens, UniProt P54760)
# T16 construct: purchased Eurofins DiscoverX KINOMEscan
# Summary of the method: as §1
# BMPR2 = target: T17, BMPR2 (Homo sapiens, UniProt Q13873)
# T17 construct: purchased Eurofins DiscoverX KINOMEscan
# Summary of the method: as §2
# TLK2 = target: T18, TLK2 (Homo sapiens, UniProt Q86UE8)
# T18 construct: purchased Eurofins DiscoverX KINOMEscan
# Summary of the method: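 Compound and kinase were incubated at room temperature for 1 h, the free kinase fraction was captured with an immobilized affinity ligand, and capture was quantified by quantitative PCR; Kd values used a 12-point half-log series up to 33 μM.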
# [2] = target: T19, RSK2 (Kin. Dom.1-N-term.) (Homo sapiens, UniProt P51812)
# T19 construct: RSK2 (Kin. Dom.1-N-term.); purchased Eurofins DiscoverX KINOMEscan
# Summary of the method: as §2
# ANKK1 = target: T20, ANKK1 (Homo sapiens, UniProt Q8NFD2)
# T20 construct: purchased Eurofins DiscoverX KINOMEscan
# Summary of the method: as §1
# CSNK1A1L = target: T21, CSNK1A1L (Homo sapiens, UniProt Q8N752)
# T21 construct: purchased Eurofins DiscoverX KINOMEscan
# Summary of the method: as §1
# FLT3 = target: T22, FLT3 (Homo sapiens, UniProt P36888)
# T22 construct: purchased Eurofins DiscoverX KINOMEscan
# Summary of the method: as §2
# WNK1 = target: T23, WNK1 (Homo sapiens, UniProt Q9H4A3)
# T23 construct: purchased Eurofins DiscoverX KINOMEscan
# Summary of the method: as §1
# CSNK1D = target: T24, CSNK1D (Homo sapiens, UniProt P48730)
# T24 construct: purchased Eurofins DiscoverX KINOMEscan
# Summary of the method: as §1
# FLT3 (D835Y) = target: T25, FLT3 (D835Y) (Homo sapiens, UniProt P36888, D835Y)
# T25 construct: purchased Eurofins DiscoverX KINOMEscan
# Summary of the method: as §2
# OSR1 = target: T26, OSR1 (Homo sapiens, UniProt O95747)
# T26 construct: purchased Eurofins DiscoverX KINOMEscan
# Summary of the method: as §2
# ERBB2 = target: T27, ERBB2 (Homo sapiens, UniProt P04626)
# T27 construct: purchased Eurofins DiscoverX KINOMEscan
# Summary of the method: as §2
# PIK3CA (Q546K) = target: T28, PIK3CA (Q546K) (Homo sapiens, UniProt P42336, Q546K)
# T28 construct: purchased Eurofins DiscoverX KINOMEscan
# Summary of the method: as §2
# MAP3K3 = target: T29, MAP3K3 (Homo sapiens, UniProt Q99759)
# T29 construct: purchased Eurofins DiscoverX KINOMEscan
# Summary of the method: as §2
# ABL1 (T315I)-non-P = target: T30, ABL1 (T315I)-non-P (Homo sapiens, UniProt P00519, T315I)
# T30 construct: purchased Eurofins DiscoverX KINOMEscan
# Summary of the method: as §2
# ASK1 = target: T31, ASK1 (Homo sapiens, UniProt Q99683)
# T31 construct: purchased Eurofins DiscoverX KINOMEscan
# Summary of the method: as §1
# PAK6 = target: T32, PAK6 (Homo sapiens, UniProt Q9NQU5)
# T32 construct: purchased Eurofins DiscoverX KINOMEscan
# Summary of the method: as §1
# PRKX = target: T33, PRKX (Homo sapiens, UniProt P51817)
# T33 construct: purchased Eurofins DiscoverX KINOMEscan
# Summary of the method: as §2
# FAK = target: T34, FAK (Homo sapiens, UniProt Q05397)
# T34 construct: purchased Eurofins DiscoverX KINOMEscan
# Summary of the method: as §2
# ABL1 (Y253F)-P = target: T35, ABL1 (Y253F)-P (Homo sapiens, UniProt P00519, Y253F)
# T35 construct: purchased Eurofins DiscoverX KINOMEscan
# Summary of the method: as §2
# CDK4-cyclinD1 = target: T36, CDK4-cyclinD1 (Homo sapiens, UniProt P11802)
# T36 construct: purchased Eurofins DiscoverX KINOMEscan
# Summary of the method: as §1
# FLT3 (D835V) = target: T37, FLT3 (D835V) (Homo sapiens, UniProt P36888, D835V)
# T37 construct: purchased Eurofins DiscoverX KINOMEscan
# Summary of the method: as §2
# ERK3 = target: T38, ERK3 (Homo sapiens, UniProt Q16659)
# T38 construct: purchased Eurofins DiscoverX KINOMEscan
# Summary of the method: as §2
# T7 sequence (O14733 whole entry): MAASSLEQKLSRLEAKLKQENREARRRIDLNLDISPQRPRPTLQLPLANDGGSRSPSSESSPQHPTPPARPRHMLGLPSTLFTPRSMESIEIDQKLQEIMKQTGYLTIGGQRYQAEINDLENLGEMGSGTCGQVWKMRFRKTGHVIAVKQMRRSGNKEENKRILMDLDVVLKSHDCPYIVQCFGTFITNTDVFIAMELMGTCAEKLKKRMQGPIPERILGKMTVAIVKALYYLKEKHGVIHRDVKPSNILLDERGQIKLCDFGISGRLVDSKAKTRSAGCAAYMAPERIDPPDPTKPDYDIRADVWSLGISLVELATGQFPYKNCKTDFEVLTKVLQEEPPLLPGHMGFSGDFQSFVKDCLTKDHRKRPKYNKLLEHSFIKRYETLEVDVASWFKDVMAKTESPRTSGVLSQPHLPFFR
# T16 sequence (P54760 16-987): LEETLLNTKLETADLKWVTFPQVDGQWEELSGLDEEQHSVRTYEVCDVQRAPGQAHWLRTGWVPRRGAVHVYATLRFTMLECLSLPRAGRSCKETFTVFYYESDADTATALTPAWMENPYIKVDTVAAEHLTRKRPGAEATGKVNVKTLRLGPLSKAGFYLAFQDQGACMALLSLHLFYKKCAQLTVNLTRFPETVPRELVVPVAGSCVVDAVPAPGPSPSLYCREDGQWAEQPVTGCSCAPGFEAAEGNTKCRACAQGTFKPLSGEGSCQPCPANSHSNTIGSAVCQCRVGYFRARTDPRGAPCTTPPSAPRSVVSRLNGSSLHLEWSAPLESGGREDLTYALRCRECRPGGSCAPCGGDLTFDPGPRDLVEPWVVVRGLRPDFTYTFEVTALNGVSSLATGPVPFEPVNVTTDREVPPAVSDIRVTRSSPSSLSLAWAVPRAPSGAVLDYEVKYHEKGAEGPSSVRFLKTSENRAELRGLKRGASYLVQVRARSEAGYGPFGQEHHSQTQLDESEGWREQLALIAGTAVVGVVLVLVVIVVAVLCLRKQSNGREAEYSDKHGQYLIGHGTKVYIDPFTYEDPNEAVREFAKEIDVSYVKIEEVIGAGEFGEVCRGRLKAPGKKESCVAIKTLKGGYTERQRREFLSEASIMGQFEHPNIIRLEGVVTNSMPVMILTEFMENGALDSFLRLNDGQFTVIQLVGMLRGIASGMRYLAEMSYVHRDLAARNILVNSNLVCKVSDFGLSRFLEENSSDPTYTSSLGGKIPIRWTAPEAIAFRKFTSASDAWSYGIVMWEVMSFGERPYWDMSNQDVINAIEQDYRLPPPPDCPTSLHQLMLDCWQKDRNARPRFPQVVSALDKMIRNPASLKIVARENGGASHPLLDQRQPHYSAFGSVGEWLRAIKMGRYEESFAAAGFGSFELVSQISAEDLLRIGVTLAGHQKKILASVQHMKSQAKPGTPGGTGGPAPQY
# T18 sequence (Q86UE8 whole entry): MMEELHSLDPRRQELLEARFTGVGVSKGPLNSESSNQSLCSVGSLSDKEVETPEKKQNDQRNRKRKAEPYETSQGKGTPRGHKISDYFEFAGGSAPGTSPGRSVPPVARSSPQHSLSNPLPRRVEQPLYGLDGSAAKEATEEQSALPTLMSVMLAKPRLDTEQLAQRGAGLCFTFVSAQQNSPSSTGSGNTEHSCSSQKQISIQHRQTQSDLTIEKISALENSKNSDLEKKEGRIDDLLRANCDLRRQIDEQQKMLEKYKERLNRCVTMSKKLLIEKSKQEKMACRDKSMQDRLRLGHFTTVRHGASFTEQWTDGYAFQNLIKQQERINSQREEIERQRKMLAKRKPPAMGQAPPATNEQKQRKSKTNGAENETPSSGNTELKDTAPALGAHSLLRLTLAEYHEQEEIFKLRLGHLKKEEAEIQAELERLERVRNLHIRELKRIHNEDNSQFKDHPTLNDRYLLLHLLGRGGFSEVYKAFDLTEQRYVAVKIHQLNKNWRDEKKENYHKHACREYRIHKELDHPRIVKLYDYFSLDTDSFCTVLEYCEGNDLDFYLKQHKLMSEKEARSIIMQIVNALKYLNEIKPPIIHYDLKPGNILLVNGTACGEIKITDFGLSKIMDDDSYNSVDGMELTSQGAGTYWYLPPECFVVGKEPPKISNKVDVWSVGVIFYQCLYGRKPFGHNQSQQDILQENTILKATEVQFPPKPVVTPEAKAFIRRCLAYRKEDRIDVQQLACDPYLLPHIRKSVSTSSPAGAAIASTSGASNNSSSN
# T36 sequence (P11802 whole entry): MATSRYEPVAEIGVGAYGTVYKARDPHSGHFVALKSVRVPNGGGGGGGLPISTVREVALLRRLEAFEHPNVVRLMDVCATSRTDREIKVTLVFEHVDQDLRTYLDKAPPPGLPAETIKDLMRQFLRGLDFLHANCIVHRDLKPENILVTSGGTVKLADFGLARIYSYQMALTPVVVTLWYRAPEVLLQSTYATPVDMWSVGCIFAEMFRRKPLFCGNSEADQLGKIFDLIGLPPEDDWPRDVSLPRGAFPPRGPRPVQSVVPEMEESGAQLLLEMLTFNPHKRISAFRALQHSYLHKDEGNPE
# T36 sequence (P24385 whole entry partner): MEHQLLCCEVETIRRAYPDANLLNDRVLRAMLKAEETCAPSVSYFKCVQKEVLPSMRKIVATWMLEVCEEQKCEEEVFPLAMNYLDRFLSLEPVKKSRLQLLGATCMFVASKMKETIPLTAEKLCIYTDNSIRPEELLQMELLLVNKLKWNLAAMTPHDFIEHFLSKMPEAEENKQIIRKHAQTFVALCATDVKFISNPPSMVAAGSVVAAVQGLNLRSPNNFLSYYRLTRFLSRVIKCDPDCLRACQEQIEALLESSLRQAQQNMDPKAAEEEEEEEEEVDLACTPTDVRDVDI
# T24 sequence (P48730 whole entry): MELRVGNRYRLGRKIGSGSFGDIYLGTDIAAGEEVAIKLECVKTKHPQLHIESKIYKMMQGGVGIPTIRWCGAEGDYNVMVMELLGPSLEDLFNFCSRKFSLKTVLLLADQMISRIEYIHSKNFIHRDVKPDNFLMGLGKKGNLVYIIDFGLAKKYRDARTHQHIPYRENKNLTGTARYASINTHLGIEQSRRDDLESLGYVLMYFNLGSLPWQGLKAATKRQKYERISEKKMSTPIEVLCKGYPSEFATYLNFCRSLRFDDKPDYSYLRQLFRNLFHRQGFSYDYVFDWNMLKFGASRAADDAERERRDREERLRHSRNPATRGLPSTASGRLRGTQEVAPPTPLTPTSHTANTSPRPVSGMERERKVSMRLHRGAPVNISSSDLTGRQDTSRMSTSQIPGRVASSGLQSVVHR
# T9 sequence (Q9UL54 whole entry): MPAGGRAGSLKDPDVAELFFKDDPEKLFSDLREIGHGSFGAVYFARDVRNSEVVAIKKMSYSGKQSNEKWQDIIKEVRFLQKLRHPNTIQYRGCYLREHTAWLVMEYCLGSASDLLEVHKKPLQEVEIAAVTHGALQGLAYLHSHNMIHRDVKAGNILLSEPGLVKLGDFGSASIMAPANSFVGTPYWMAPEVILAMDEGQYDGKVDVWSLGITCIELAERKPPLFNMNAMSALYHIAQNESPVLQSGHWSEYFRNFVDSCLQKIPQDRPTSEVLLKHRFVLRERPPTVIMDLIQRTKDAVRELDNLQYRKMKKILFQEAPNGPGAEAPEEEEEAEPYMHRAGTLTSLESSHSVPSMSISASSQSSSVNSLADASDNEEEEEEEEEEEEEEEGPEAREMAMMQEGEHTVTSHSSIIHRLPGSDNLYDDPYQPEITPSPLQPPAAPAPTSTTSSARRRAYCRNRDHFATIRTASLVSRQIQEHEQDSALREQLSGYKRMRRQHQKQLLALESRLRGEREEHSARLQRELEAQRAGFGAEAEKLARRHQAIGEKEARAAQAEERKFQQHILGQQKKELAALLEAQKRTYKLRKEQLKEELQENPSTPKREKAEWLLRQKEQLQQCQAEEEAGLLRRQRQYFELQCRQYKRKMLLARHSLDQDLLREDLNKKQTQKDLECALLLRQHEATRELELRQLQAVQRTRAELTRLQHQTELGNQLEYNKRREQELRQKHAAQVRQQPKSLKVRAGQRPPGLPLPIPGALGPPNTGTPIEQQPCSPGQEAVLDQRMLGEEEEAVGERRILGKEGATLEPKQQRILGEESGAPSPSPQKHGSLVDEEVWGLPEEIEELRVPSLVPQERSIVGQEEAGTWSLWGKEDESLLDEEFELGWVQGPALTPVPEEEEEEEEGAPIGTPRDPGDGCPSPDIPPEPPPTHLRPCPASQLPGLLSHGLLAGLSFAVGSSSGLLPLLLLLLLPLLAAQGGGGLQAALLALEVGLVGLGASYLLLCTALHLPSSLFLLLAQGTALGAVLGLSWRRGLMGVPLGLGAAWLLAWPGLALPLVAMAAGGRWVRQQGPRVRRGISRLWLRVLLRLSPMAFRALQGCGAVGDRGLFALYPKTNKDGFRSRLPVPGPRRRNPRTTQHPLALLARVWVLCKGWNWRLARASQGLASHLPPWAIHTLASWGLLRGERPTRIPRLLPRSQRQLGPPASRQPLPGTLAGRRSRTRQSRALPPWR
# T13 sequence (O75676 372-772 limits assumed): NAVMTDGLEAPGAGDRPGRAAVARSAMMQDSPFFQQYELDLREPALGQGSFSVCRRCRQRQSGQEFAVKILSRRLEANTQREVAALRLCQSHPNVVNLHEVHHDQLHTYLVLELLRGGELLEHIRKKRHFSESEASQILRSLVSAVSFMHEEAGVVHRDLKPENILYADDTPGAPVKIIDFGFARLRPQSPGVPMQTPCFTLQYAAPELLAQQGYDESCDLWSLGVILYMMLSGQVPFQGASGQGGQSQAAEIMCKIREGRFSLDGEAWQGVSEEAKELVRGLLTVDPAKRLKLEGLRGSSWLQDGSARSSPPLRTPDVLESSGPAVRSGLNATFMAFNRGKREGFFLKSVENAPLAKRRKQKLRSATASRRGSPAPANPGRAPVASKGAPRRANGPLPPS
smiles,measurement,setting,value
"O=C1Nc2c(cc([N+](=O)[O-])c3c2CCCC3)C1=NO [Compound 5d, 3-(Hydroxyimino)-5-nitro-1,3,6,7,8,9-hexahydro-2H-benzo[g]indol-2-one]",inhibition at 10 µM,TRKC,31%
same,inhibition at 10 µM,ERN1,29%
same,inhibition at 10 µM,BLK,23%
same,inhibition at 10 µM,PKN2,84%
same,inhibition at 10 µM,MARK1,24%
same,inhibition at 10 µM,FGFR2,19%
same,inhibition at 10 µM,MKK7,0%
same,Inhib. (%),MKK7; 10 μM,inactive
same,inhibition at 10 µM,DMPK,49%
same,inhibition at 10 µM,TAOK2,37%
same,inhibition at 10 µM,MELK,56%
same,inhibition at 10 µM,PCTK1,5%
same,inhibition at 10 µM,ERK5,0%
same,inhibition at 10 µM,[1],89.3%
same,inhibition at 10 µM,p38-σ,7%
same,inhibition at 10 µM,PCTK3,0%
same,inhibition at 10 µM,EPHB4,0%
same,inhibition at 10 µM,BMPR2,64%
same,inhibition at 10 µM,TLK2,0%
same,inhibition at 10 µM,[2],81%
same,inhibition at 10 µM,ANKK1,8%
same,inhibition at 10 µM,CSNK1A1L,63%
same,inhibition at 10 µM,FLT3,12%
same,inhibition at 10 µM,WNK1,12%
same,inhibition at 10 µM,CSNK1D,79%
same,inhibition at 10 µM,FLT3 (D835Y),54%
same,inhibition at 10 µM,OSR1,25%
same,inhibition at 10 µM,ERBB2,29%
same,inhibition at 10 µM,PIK3CA (Q546K),40%
same,inhibition at 10 µM,MAP3K3,68%
same,inhibition at 10 µM,ABL1 (T315I)-non-P,1%
same,inhibition at 10 µM,ASK1,50%
same,inhibition at 10 µM,PAK6,39%
same,inhibition at 10 µM,PRKX,0%
same,inhibition at 10 µM,FAK,19%
same,inhibition at 10 µM,ABL1 (Y253F)-P,41%
same,inhibition at 10 µM,CDK4-cyclinD1,9%
same,inhibition at 10 µM,FLT3 (D835V),72%
same,inhibition at 10 µM,ERK3,0%
